1 compound from patent publication US12544378B2, “Solid pharmaceutical formulation of PARP inhibitors and use thereof” (IMPACT THERAPEUTICS (SHANGHAI), INC, priority 2015, dated 2026) can be followed below.

Each structure is given as a SMILES string. Bounds are passed on as bounds.

Series [1] in a line: Bioavailability after oral administration of the crystalline compound. The conditions noted are these: mouse, in vivo, mice, simple mixture of crystalline compound with surfactants (Tween 80) and emulsifiers (methylcellulose).
A short description of the next series: Water solubility. The series is classed as physicochemical.
Series [2] is described as follows: Absorption of amorphous solid dispersion HP-55 (1:3), rat pharmacokinetics (PK) method (Example 12). The series is classed as in vivo. The conditions noted are these: whole blood, Wistar rats, IV, 1 mg/kg, solution in DMSO:10% HP-β-CD PBS (1:9). As for the experimental part:
Measurement of the Absorption Ratio of the Amorphous Solid Dispersions of 5-fluoro-1-(4-fluoro-3-(4-(pyrimidin-2-yl)piperazine-1-carbonyl)benzyl)quinazoline-2,4(1H,3H)-dione:HP-55 (1:3) Using a Rat Pharmacokinetics (PK) Method
(§1) The solution of 5-fluoro-1-(4-fluoro-3-(4-(pyrimidin-2-yl)piperazine-1-carbonyl)benzyl)quinazoline-2,4(1H,3H)-dione in DMSO:10% HP-β-CD PBS (1:9) was administered to Wistar rats at 1 mg/kg by IV. And the homogeneous suspension of the amorphous solid dispersion of 5-fluoro-1-(4-fluoro-3-(4-(pyrimidin-2-yl)piperazine-1-carbonyl)benzyl)quinazoline-2,4(1H,3H)-dione:HP-55 (1:3) in 0.5% MC/water was administered to Wistar rats at 10 mg/kg by IG. The blood was sampled at a certain time after administration. The blood concentrations were measured by LCMS method, and the oral absorption was measured by a rat pharmacokinetics (PK) method.

A short description of series [3]: Effects of vehicle formulas on drug absorption, mouse pharmacokinetics (PK) method (Example 8). The series is classed as in vivo. The conditions noted are these: ICR mice, gavage, solution in DMSO:10% HP-β-CD PBS=1:9. As for the experimental part:
Measurement of the Effects of 5-fluoro-1-(4-fluoro-3-(4-(pyrimidin-2-yl)piperazine-1-carbonyl)benzyl)quinazoline-2,4(1H,3H)-dione Vehicle Formulas on the Drug Absorption Using a Mouse Pharmacokinetics (PK) Method
5-Fluoro-1-(4-fluoro-3-(4-(pyrimidin-2-yl)piperazine-1-carbonyl)benzyl)quinazoline-2,4(1H,3H)-dione in different vehicle formulas at the same dosage was administered to ICR mice by gavage. The blood was sampled at 30 min after gavage, the blood concentrations were measured by LCMS method, and the effects on the drug absorption of different vehicle formulas was made a comparison. The blood concentrations were shown as the table below: […]

A short description of series [4]: Absorption of amorphous solid dispersion HP-55 (1:3), mouse pharmacokinetics (PK) method (Example 11). The series is classed as in vivo. The conditions noted are these: whole blood, mice, IV, 1 mg/kg, solution in DMSO:10% HP-β-CD PBS (1:9). As for the experimental part: Measurement of the Absorption Ratio of the Amorphous Solid Dispersions of 5-fluoro-1-(4-fluoro-3-(4-(pyrimidin-2-yl)piperazine-1-carbonyl)benzyl)quinazoline-2,4(1H,3H)-dione:HP-55 (1:3) Using a Mouse Pharmacokinetics (PK) Method
as §1, with “to mice” for “to Wistar rats”, “a mouse” for “a rat”

The term bioavailability denotes the share of a dose that reaches the circulation, judged against a reference dose that is usually intravenous. In general, AUC(0-inf) refers to total exposure, with the tail of the curve extrapolated. Low values mean less exposure, high ones more exposure. The term AUC(0-t) denotes exposure summed from dosing to a finite time, without extrapolation to infinity. By Cmax is commonly meant the highest concentration seen after dosing. One may read the half-life as how long it takes for the measured level to halve. A high value points to slow decline. Turning to `O=C(c1cc(Cn2c(=O)[nH]c(=O)c3c(F)cccc32)ccc1F)N1CCN(c2ncccn2)CC1` [5-fluoro-1-(4-fluoro-3-(4-(pyrimidin-2-yl)piperazine-1-carbonyl)benzyl)quinazoline-2,4(1H,3H)-dione], in series [1], the bioavailability is less than 5%. Moreover, in “Water solubility”, the “water solubility (in words)” value is on record as “very low”. In series [2] (female), this compound showed an AUC(0-inf) of 1290 ng·h/mL, an AUC(0-t) of 1250 ng·h/mL, a Cmax of 618 ng/mL and a half-life of 304 min. In addition, in series [2] (male), the AUC(0-inf) is 365 ng·h/mL, the AUC(0-t) stood at 363 ng·h/mL, the Cmax is 896 ng/mL and the half-life is 51 min. In series [3], the oral absorption rate turned out to be 48%. In series [4], the AUC(0-inf) amounted to 997 ng·h/mL, the AUC(0-t) was 991 ng·h/mL, the Cmax came out at 1920 ng/mL and the half-life is 32.7 min.
